From article PMC6773951 (Scientific Reports, 2019)

Molecular target: T1, hPIRT (human PIRT, phosphoinositide interacting regulator of TRPs) (Homo sapiens, UniProt P0C851)
T1 construct: full-length, recombinant from E. coli, reconstituted in DPC micelles; two TM helices, C-terminal amphipathic helix Asp125-Arg137; maleimide dye labelled for MST
Experiment: microscale thermophoresis
Assay type: binding
Conditions: DPC micelles (0.1% DPC), 50 mM HEPES pH 7.5, 25 °C; fluorophore-labelled hPIRT 400 nM; no TRPM8-S1S4; diC8 chain stated for the NMR titration, MST lipid called PIP2 only

T1 sequence (P0C851 whole entry): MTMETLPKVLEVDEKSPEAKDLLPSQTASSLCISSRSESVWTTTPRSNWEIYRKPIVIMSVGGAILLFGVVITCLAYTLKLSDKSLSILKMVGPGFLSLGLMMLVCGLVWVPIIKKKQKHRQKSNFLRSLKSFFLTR

Kd: 0.18 ± 0.06 mole%
SMILES: CCCCCCCC(=O)OC[C@H](COP(=O)(O)O[C@@H]1[C@H](O)[C@H](O)[C@@H](OP(=O)(O)O)[C@H](OP(=O)(O)O)[C@H]1O)OC(=O)CCCCCCC [PIP2, 1,2-dioctanoyl-sn-glycero-3-phospho-(1′-myo-inositol-4′,5′-bisphosphate)]
